Values belong to the compound of their own block, whether it stands above or below them.
Assays:
[1] = biological target: T1, IRE1α* (Homo sapiens, UniProt O75460); assay: In vitro kinase activity assay (IRE1α kinase inhibition); format: biochemical
T1 construct: human IRE1α (residues 547-977, IRE1α*) was expressed in SF9 insect cells; His6 (N); made in house; host or cells: Sf9 insect cells (Bac-to-Bac baculovirus)
In short: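 His6-tagged human IRE1α cytosolic kinase/RNase domains (residues 547-977) from SF9 cells, preincubated 30 min with inhibitor (top 10 or 60 μM, three-fold dilutions) in pH 7.5 HEPES/MgCl2 buffer, then 10 μCi [γ-32P]ATP, 23 °C, 3 h. Filter-spot autoradiography; inhibition normalised to no-kinase and DMSO wells; IC50 from one-site fit.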

[2] = test system: mouse splenocytes; assay: LPS-induced differentiation of mouse splenocytes into plasma cells (flow cytometry, IgM ELISA); format: cell-based; conditions: 1 μg/mL LPS, three days; for IgM secretion / plasma cell (CD138+) differentiation: 20 μM-1.25 μM
Protocol: Therefore, we sought to compare the sensitivity of this process to both KIRAs and PAIRs. To this end, we assessed how KIRA8, KIRA9, and PAIR1 affected the differentiation of lipopolysaccharide (LPS)-treated mouse splenocytes into antibody-secreting plasma cells. Total live number of CD19+ B-cells were assessed and plasma cells were quantified on the basis of B220 downregulation and CD138 expression by flow cytometry (FIGS. 6A-6C, FIG. 24). Concomitantly, secreted IgM was measured in the cell culture supernatants by ELISA (FIG. 6C).
Splenocyte Isolation and Differentiation
Red blood cells were lysed with ammonium chloride potassium buffer. Splenocytes were plated at 2.5×10^5 cells/well in a 96-well round bottom plate in complete media. The splenocytes were treated with or without 1 μg/ml LPS 026:b6 (Sigma). […] The splenocytes were incubated for three days in a 37° C., 5% CO2 humidified chamber before collection and staining for flow cytometry.
Cells from the plasma cell assay were collected in a 96-well plate and washed with PBS followed by staining with LIVE/DEAD Fixable Near-IR Dead Cell Stain kit (Invitrogen). Reagent was reconstituted as per manufacturer's instructions, diluted 1:1000 in PBS, and cells were stained in 100 μL on ice for 20 minutes. The cells were then washed with FACS buffer, PBS (Corning), 2 mM EDTA and 2% heat inactivated fetal bovine serum (Omega Scientific). The cells were then stained with 50 μL antibody cocktail consisting of anti-CD19 (BioLegend), anti-CD45R (BD Pharmingen), and anti-CD138 (BioLegend) in FACS buffer on ice for 15 minutes. Cells were resuspended in FACS buffer and combined with an equal volume of 4% paraformaldehyde with 5000 Countbright Absolute Counting Beads (Thermofisher). Stained cells were analyzed on a Fortessa (Becton Dickinson). Data analysis was performed using FlowJo (v10) software (Treestar Inc.).
Media supernatants from the in vitro plasma cell differentiation assay were measured for secreted IgM by ELISA. […] Wash buffer (PBS with 0.05% Tween-20 (v/v)) was used for all washing steps and blocked with PBS-BB (PBS without Ca^2+/Mg^2+, 1% BSA (w/v), 0.05% Tween-20 (v/v)). Supernatants from LPS stimulated samples were diluted (1:100) and media only samples were diluted (1:10) in PBS-BB. […] ELISA plates were developed with TMB (Sigma) and stopped with 1N sulfuric acid. Absorbance was measured at 450 nm using spectrophotometer (Spectramax M5, Molecular Devices). Sample IgM concentration values were calculated with SoftMaxPro software.

[3] = biological target: T2, IRE1α (Mus musculus, UniProt Q9EQY0); assay: IRE1α autophosphorylation by Phos-tag SDS-PAGE in INS-1 cells expressing IRE1α under Dox control; format: cell-based, rat; conditions: various concentrations, 5 ng/mL Dox
T2 construct: expressed in transfected cells
T2 sequence (Q9EQY0 21-977): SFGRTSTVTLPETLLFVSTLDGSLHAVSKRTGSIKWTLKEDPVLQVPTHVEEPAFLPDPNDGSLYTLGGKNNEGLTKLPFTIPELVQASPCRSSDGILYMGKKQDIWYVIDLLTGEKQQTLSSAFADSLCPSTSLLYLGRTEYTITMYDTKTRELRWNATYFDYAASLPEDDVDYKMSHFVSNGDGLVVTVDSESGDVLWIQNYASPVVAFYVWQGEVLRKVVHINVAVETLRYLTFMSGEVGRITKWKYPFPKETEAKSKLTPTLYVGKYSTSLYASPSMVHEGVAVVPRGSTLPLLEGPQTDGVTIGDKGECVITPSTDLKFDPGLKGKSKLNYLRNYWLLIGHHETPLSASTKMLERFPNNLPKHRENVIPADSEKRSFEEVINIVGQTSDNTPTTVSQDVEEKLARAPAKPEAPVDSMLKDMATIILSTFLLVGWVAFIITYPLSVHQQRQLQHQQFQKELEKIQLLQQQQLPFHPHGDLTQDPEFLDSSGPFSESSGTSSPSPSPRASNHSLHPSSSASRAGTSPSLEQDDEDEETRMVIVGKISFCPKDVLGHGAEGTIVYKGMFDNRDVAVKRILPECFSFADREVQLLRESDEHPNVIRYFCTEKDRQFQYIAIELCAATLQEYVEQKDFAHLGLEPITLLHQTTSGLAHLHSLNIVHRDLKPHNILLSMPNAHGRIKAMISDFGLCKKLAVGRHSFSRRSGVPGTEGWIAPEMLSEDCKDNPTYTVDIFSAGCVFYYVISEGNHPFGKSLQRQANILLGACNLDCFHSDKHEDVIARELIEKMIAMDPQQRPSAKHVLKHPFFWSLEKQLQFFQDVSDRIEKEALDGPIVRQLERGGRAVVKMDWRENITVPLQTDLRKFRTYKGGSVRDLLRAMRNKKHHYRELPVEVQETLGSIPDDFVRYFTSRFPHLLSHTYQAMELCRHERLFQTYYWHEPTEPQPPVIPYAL
Protocol: We next tested PAIR1 and KIRA9 in an INS-1 rat insulinoma stable cell line where IRE1α activation can be achieved through conditional overexpression of a mouse IRE1α transgene (Han et al., 2009).
Treatment Conditions for Phostag Gels
INS-1 or IRE1α-overexpressing isogenic INS-1 cells were plated onto a 24-well Poly-D-Lysine coated tissue culture plate and grown for 48 hrs. Inhibitor or DMSO were added to the media and incubated for 1 hour at 37° C. with 5% CO2 prior to addition of ER stress agents. […] Cells were lysed directly into SDS loading buffer (50 mM Tris, 100 mM DTT, 2% SDS (w/v), 10% glycerol (v/v), and 0.1% bromophenol blue (w/v), pH 6.8) and boiled for five minutes prior to gel loading.
Phostag Acrylamide Gel Procedure
A phostag acrylamide gel recipe used to resolve phosphorylation of IRE1α has been previously established and this recipe was followed verbatim for this study.^91 Resolving gels were allowed to solidify (˜1.5 hr) before adding the stacking gel and comb and allowed to solidify (˜1 hr). Gels were run using Tris-Glycine-SDS running buffer (25 mM Tris, 192 mM glycine, 0.1% SDS, pH 8.3) at 100 V for 3-3.5 hours. After the gels have ran, they were transferred onto nitrocellulose paper via rapid transfer using a Transblot Turbo and premade transfer packs. Gels were transferred at 25 V, 2.5 A for 15 minutes. […]

T1 sequence (O75460 547-977): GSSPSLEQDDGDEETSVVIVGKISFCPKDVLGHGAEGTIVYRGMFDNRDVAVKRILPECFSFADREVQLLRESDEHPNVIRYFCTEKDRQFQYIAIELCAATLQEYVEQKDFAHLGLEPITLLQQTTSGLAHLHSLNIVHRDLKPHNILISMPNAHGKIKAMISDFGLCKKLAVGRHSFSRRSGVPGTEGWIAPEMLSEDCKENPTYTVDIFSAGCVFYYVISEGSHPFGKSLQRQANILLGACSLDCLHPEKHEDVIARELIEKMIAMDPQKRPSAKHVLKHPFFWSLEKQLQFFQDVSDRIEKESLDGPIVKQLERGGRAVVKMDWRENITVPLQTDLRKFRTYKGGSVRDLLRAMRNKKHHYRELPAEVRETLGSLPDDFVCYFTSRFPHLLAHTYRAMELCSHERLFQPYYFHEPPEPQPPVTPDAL

SMILES: O=S(=O)(CC(F)(F)F)Nc1ccc(Oc2ncccc2-c2ccnc(N[C@H]3CCCNC3)n2)c2ccccc12 (stereo in doubt) [PAIR1, 2,2,2-trifluoro-N-(4-(3-(2-(piperidin-3-ylamino)pyrimidin-4-yl)pyridin-2-yloxy)naphthalen-1-yl)ethanesulfonamide]
- IC50 ([1]; IRE1α kinase inhibition, read-out: IC50 IRE1a): 25 nM
- overall number of B cells (CD19+), general toxicity [2]: neither PAIR1 nor KIRA9 reduced the overall number of B cells
- IgM secretion [2]: more modest inhibition
- plasma cell (CD138+) differentiation [2]: more modest inhibition
- IRE1α autophosphorylation [3]: equivalently block the autophosphorylation

- Ki ([1]; read-out: Inhibition of IRE1α*'s kinase activity, Ki): 160 nM
SMILES: O=S(=O)(CCC(F)(F)F)Nc1ccc(Oc2ncccc2-c2ccnc(NC3CCCNC3)n2)c2ccccc12 (stereo not shown) [KIRA9, 3,3,3-trifluoro-N-(4-(3-(2-(piperidin-3-ylamino)pyrimidin-4-yl)pyridin-2-yloxy)naphthalen-1-yl)propane-1-sulfonamide]
- overall number of B cells (CD19+), general toxicity [2]: neither PAIR1 nor KIRA9 reduced the overall number of B cells
- IgM secretion [2]: reductions in both plasma cell differentiation and IgM secretion in a dose-dependent manner
- plasma cell (CD138+) differentiation [2]: reductions in both plasma cell differentiation and IgM secretion in a dose-dependent manner
- IRE1α autophosphorylation [3]: equivalently block the autophosphorylation
